# Like-named read-outs stand apart in the source and are kept apart here.
# Biological target: T1, EBP-Ig (N-terminal 225 amino acids of the human EPO receptor joined to an Ig heavy chain) (Homo sapiens, UniProt P19235)
# T1 construct: Ig heavy chain (fusion partner); made in house; host or cells: NSO cells (secreted into conditioned media)
# T1 sequence (P19235 25-250 limits assumed): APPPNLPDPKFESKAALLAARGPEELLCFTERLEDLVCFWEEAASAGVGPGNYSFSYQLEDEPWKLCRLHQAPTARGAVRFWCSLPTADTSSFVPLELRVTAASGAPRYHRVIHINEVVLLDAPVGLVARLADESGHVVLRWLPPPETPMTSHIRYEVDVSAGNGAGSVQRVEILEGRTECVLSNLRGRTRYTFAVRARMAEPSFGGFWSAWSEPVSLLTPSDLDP
# Assay: Inhibition of [125I]EPO binding to immobilized EBP-Ig (EPO binding protein-Ig), scintillation Flash plate competition assay
# Settings: for IC30 μM (Inhibition of EPO binding to EBP-Ig): 0–500 μM test compound; for % inh @ 50 μM (Inhibition of EPO binding to EBP-Ig): 50 μM test compound, average % inhibition
# [1] = read-out: % inh @ 50 μM (Inhibition of EPO binding to EBP-Ig)
# [2] = read-out: EPO/EBP-Ig % inh @ 50 μM, Table 11, 50 μM
# [3] = read-out: IC50, μM (Inhibition of EPO binding to EBP-Ig), 0.5 nM [125I]EPO, concentration reducing corrected total binding to 50%
smiles,measurement,setting,value
"CCCCC(=O)Nc1cccc(CN(Cc2cccc(Oc3ccccc3)c2)C(CCC(=O)O)C(=O)NCCOCCOCCNC(=O)C(CCC(=O)O)N(Cc2cccc(NC(=O)CCCC)c2)Cc2cccc(Oc3ccccc3)c2)c1 (stereo not shown) [cpd 247, [N-(3-Phenoxybenzyl)-N-(3-(pentanoylamino)benzyl)-Glu-NHCH2CH2OCH2]2]",IC50,,18 µM
same,IC30 μM (Inhibition of EPO binding to EBP-Ig),0.5 nM [125I]EPO,7 µM
same,inhibition at 50 µM,[1],47%
same,inhibition at 50 µM,[2],47%
O=C(O)C(F)(F)F.O=C(O)[C@H](Cc1ccc(O)cc1)NC/C=C/c1ccc(C(F)(F)F)cc1 [compound 362],EPO/EBP-Ig % inh @ 50 μM,50 μM compound,0%
CC(C)(C)OC(=O)CC[C@H](NC/C=C/c1cccc(Oc2cccc(C(F)(F)F)c2)c1)C(=O)OC(C)(C)C [compound 338],EPO/EBP-Ig % inh @ 50 μM,"50 μM compound, Table 19A",23%
O=C(O)C(F)(F)F.O=C(O)[C@H](CO)NC/C=C/c1cccc(Oc2ccc(Cl)c(Cl)c2)c1 [compound 349],EPO/EBP-Ig % inh @ 50 μM,"50 μM compound, Table 20A",23%
COC(=O)[C@H](COC(C)(C)C)N(C/C=C/c1ccc(-c2ccccc2)cc1)C/C=C/c1ccc(-c2ccccc2)cc1 [compound 291],EPO/EBP-Ig % inh @ 50 μM,"50 μM compound, Table 16A",17%
CCOC(=O)c1ccc(NC(=O)NCCCCC(C(=O)NCCc2ccc(OC)cc2)N(C/C=C/c2ccccc2)C/C=C/c2ccccc2)cc1 (stereo not shown) [compound 231],EPO/EBP-Ig % inh @ 50 μM,"50 μM compound, Table 10",36%
same,% inh @ 50 μM (Inhibition of EPO binding to EBP-Ig),0.5 nM [125I]EPO,36%
CC(C)(CC(=O)O)CC(=O)NCCCCC(C(=O)NCCCOCCCCOCCCNC(=O)C(CCCCNC(=O)CC(C)(C)CC(=O)O)N(Cc1ccc(OCc2ccccc2)cc1)Cc1ccc(OCc2ccccc2)cc1)N(Cc1ccc(OCc2ccccc2)cc1)Cc1ccc(OCc2ccccc2)cc1 (stereo not shown) [compound 267],IC30 μM (Inhibition of EPO binding to EBP-Ig),0.5 nM [125I]EPO,2 µM
same,EPO/EBP-Ig % inh @ 50 μM,"50 μM compound, Table 13",83%
same,% inh @ 50 μM (Inhibition of EPO binding to EBP-Ig),0.5 nM [125I]EPO,83%
same,IC50,[3],6 µM
COc1ccc(CCNC(=O)C(CCCCN)N(C/C=C/c2ccccc2)C/C=C/c2ccccc2)cc1OC (stereo not shown) [compound 221],IC30 μM (Inhibition of EPO binding to EBP-Ig),0.5 nM [125I]EPO,10 µM
same,EPO/EBP-Ig % inh @ 50 μM,"50 μM compound, Table 10",48%
same,% inh @ 50 μM (Inhibition of EPO binding to EBP-Ig),0.5 nM [125I]EPO,48%
same,IC50,[3],80 µM
CC(C)(C)OC(=O)CCC(C(=O)OC(C)(C)C)N(C/C=C/c1cccc(Oc2ccc(C(C)(C)C)cc2)c1)C/C=C/c1cccc(Oc2ccc(C(C)(C)C)cc2)c1 (stereo not shown) [compound 102],EPO/EBP-Ig % inh @ 50 μM,"Table 6, 50 μM",5%
CCCCNC(=O)C(CCCCNC(=O)c1ccc(OC)cc1)N(C/C=C/c1ccccc1)C/C=C/c1ccccc1 (stereo not shown) [compound 207],EPO/EBP-Ig % inh @ 50 μM,"50 μM compound, Table 10",20%
"O=C(O)CC(C(=O)O)N(CC=Cc1cccc(Oc2ccccc2)c1)CC=Cc1cccc(Oc2ccccc2)c1 (stereo not shown) [cpd 107, N,N-bis(3-Phenoxycinnamyl)Asp-OH]",IC30 μM (Inhibition of EPO binding to EBP-Ig),0.5 nM [125I]EPO,30 µM
same,% inh @ 50 μM (Inhibition of EPO binding to EBP-Ig),0.5 nM [125I]EPO,78%
same,EPO/EBP-Ig % inh @ 50 μM,"Table 6, 50 μM",78%
O=C(O)CCC(=O)NCCCCC(C(=O)NCCOCCOCCNC(=O)C(CCCCNC(=O)CCC(=O)O)N(Cc1ccc(OCc2ccccc2)cc1)Cc1ccc(OCc2ccccc2)cc1)N(Cc1ccc(OCc2ccccc2)cc1)Cc1ccc(OCc2ccccc2)cc1 (stereo not shown) [compound 262],IC30 μM (Inhibition of EPO binding to EBP-Ig),0.5 nM [125I]EPO,1 µM
same,IC50,[3],1.5 µM
CC(C)(C)OC[C@H](NC/C=C/c1cccc(Oc2cccc(C(F)(F)F)c2)c1)C(=O)O [compound 357],EPO/EBP-Ig % inh @ 50 μM,"50 μM compound, Table 20A",12%
COc1ccc(CCNC(=O)C(CCCCNC(=O)Nc2ccc(Cl)c(Cl)c2)N(C/C=C/c2ccccc2)C/C=C/c2ccccc2)cc1 (stereo not shown) [compound 230],EPO/EBP-Ig % inh @ 50 μM,"50 μM compound, Table 10",42%
same,% inh @ 50 μM (Inhibition of EPO binding to EBP-Ig),0.5 nM [125I]EPO,42%
"CC(C)(C)OC(=O)CC(C(=O)OC(C)(C)C)N(CC=Cc1cccc(Oc2ccccc2)c1)CC=Cc1cccc(Oc2ccccc2)c1 (stereo not shown) [cpd 106, N,N-bis(3-Phenoxycinnamyl)Asp(O-t-Bu)-O-t-Bu]",EPO/EBP-Ig % inh @ 50 μM,"Table 6, 50 μM",20%
"COC(=O)C(CCC(=O)OC(C)(C)C)NCC=Cc1cccc(Oc2ccccc2)c1 (stereo not shown) [cpd 334, N-(3-phenoxycinnamyl)Glu(O-t-Bu)-OMe]",EPO/EBP-Ig % inh @ 50 μM,"50 μM compound, Table 19A",6%
COc1ccccc1CCNC(=O)C(CCCCN)N(CC=Cc1ccccc1)CC=Cc1ccccc1 (stereo not shown) [compound 224],IC30 μM (Inhibition of EPO binding to EBP-Ig),0.5 nM [125I]EPO,25 µM
same,inhibition at 50 µM,[1],51%
same,inhibition at 50 µM,"read-out: EPO/EBP-Ig % inh @ 50 μM, 50 μM compound, Table 10",51%
same,IC50,[3],50 µM
O=C(O)CCCC(=O)NCCCCC(C(=O)NCCCOCCCCOCCCNC(=O)C(CCCCNC(=O)CCCC(=O)O)N(Cc1ccc(OCc2ccccc2)cc1)Cc1ccc(OCc2ccccc2)cc1)N(Cc1ccc(OCc2ccccc2)cc1)Cc1ccc(OCc2ccccc2)cc1 (stereo not shown) [compound 266],IC30 μM (Inhibition of EPO binding to EBP-Ig),0.5 nM [125I]EPO,1 µM
same,EPO/EBP-Ig % inh @ 50 μM,"50 μM compound, Table 13",82%
same,% inh @ 50 μM (Inhibition of EPO binding to EBP-Ig),0.5 nM [125I]EPO,82%
same,IC50,[3],4 µM
O=C(O)CCC(C(=O)O)N(C/C=C/c1ccc(NC(=O)c2ccc(-c3ccccc3)cc2)cc1)Cc1ccc(OCc2ccccc2)cc1 (stereo not shown) [compound 90],EPO/EBP-Ig % inh @ 50 μM,"Table 5, 50 μM",29%
"O=C(O)CCC(C(=O)NCCOCCOCCNC(=O)C(CCC(=O)O)N(Cc1ccc(OCc2ccccc2)cc1)Cc1ccc(OCc2ccccc2)cc1)N(Cc1ccc(OCc2ccccc2)cc1)Cc1ccc(OCc2ccccc2)cc1 (stereo not shown) [cpd 246, [N,N-bis(4-Benzyloxybenzyl)GluNHCH2CH2OCH2]2]",IC30 μM (Inhibition of EPO binding to EBP-Ig),0.5 nM [125I]EPO,10 µM
same,inhibition at 50 µM,[1],79%
same,inhibition at 50 µM,[2],79%
O=C(O)CCC(=O)NCCCCC(C(=O)NCCCOCCCCOCCCNC(=O)C(CCCCNC(=O)CCC(=O)O)N(Cc1ccc(OCc2ccccc2)cc1)Cc1ccc(OCc2ccccc2)cc1)N(Cc1ccc(OCc2ccccc2)cc1)Cc1ccc(OCc2ccccc2)cc1 (stereo not shown) [compound 265],IC30 μM (Inhibition of EPO binding to EBP-Ig),0.5 nM [125I]EPO,1 µM
same,EPO/EBP-Ig % inh @ 50 μM,"50 μM compound, Table 13",65%
same,% inh @ 50 μM (Inhibition of EPO binding to EBP-Ig),0.5 nM [125I]EPO,65%
same,IC50,[3],6 µM
